Laboratory results reported in EP0343961B1, “Aryl- and heteroaryl piperazinyl carboxamides having central nervous system activity” (priority 1988, dated 1989).
Like-named read-outs stand apart in the source and are kept apart here.

Columns and labels:
[1] = molecular target: T1, 5-HT1A serotonin receptor (Rattus norvegicus, UniProt P19327); test: inhibition of 5-HT1A serotonin receptor binding (3H-8-OH-DPAT); set-up: species or system male Sprague Dawley rats; conditions: rat hippocampal tissue; for inhibition at 0.1 µM: at 100 nM
T1 construct: Hippocampal tissue from male Sprague Dawley rats is dissected and homogenized; from tissue; host or cells: hippocampus of male Sprague Dawley rats, membrane homogenate
T1 sequence (P19327 1-422): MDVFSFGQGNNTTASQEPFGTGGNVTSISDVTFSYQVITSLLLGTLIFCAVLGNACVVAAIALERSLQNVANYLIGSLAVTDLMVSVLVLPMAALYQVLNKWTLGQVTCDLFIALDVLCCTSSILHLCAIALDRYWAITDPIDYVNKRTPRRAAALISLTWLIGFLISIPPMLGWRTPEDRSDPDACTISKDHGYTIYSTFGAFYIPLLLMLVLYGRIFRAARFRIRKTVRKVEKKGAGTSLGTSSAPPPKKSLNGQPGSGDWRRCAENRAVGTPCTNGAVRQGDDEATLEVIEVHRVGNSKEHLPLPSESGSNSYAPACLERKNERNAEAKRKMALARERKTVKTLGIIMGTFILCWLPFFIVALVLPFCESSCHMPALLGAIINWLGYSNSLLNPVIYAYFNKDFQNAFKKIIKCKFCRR
Protocol: The assay is carried out as follows: Hippocampal tissue from male Sprague Dawley rats is dissected and homogenized on ice in 40 volumes of buffer A (50 mM Tris HCl, pH = 7.7) using a Polytron homogenizer at setting 5 for 3 x 15 second bursts. The homogenate is then centrifuged at 20,000 rpm (RC5-B; 50,000 g) and the supernatant discarded. The pellet is resuspended in 40 volumes of the same buffer and incubated at 37°C for 10 minutes to aid in the removal of endogenous serotonin. The homogenate is then centrifuged (as above) and the supernatant discarded. The pellet is then resuspended in 100 volumes of buffer B (50 mM Tris HCl, pH = 7.7 containing 0.1% ascorbate, 10 µM pargyline and 4 mM CaCl₂) and sonicated. An aliquot is taken for protein determination by the Lowry method and the remainder stored frozen at -70°C until used.
The homogenate (50 µL; 0.4-0.6 mg protein/sample) is incubated with 100 µL (1.5-1.8 nM) ³H-8-hydroxy-2-(di-n-propylamino)tetraline (³H-8-OH-DPAT) in a final volume of 2 mL of buffer for 10 minutes at 37°C. At the end of the incubation, 3 mL of cold buffer A are added to each tube, and the contents rapidly filtered through Whatman GF/B glass filters. The filters are then rapidly washed 2 times with 3 mL of the same buffer, placed in scintillation vials, and shaken for 15 minutes with 10 mL of Hydrofluor (National Diagnostics) scintillation cocktail. The vials are then counted in a Packard 460 CD scintillation counter.
Specific binding is defined as total binding less binding in the presence of excess unlabeled serotonin (1 µM). Binding in the presence of various concentrations of test drug is expressed as a percent of specific binding when no drug is present. […] Linear regression analysis then yields a straight line with 95% confidence limits from which an IC₅₀ can be inversely predicted.

5-HT₂ = molecular target: T2, 5-HT₂ (Rattus norvegicus, UniProt P14842); test: 5-HT2 inhibition of 3H-spiroperidol binding, brain cortex homogenate; conditions: read-out: % Inhibition at 1 µM 5-HT₂
T2 construct: employing rat brain cortex homogenate as the receptor tissue; from tissue; host or cells: rat brain cortex, membrane homogenate

M1 muscarinic receptor = molecular target: T3, M1 muscarinic receptor (Rattus norvegicus, UniProt P08482); test: M1 muscarinic receptor binding ([3H] pirenzipine, hippocampus tissue)
T3 construct: from tissue; host or cells: rat hippocampus, membrane fraction
T3 sequence (P08482 1-460): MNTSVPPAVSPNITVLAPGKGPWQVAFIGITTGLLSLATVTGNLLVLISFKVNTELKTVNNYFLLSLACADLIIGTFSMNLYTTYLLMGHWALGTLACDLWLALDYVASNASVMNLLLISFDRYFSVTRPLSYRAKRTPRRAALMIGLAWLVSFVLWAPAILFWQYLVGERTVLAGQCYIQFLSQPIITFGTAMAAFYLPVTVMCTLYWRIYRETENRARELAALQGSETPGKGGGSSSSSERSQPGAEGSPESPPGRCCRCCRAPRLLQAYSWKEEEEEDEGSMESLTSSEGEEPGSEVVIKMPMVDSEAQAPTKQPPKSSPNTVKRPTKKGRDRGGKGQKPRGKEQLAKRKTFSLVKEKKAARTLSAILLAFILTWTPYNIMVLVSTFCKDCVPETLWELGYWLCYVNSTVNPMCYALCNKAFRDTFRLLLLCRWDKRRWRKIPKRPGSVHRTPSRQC
Protocol: The M1 muscarinic receptor binding properties of the compounds of this invention were established as follows:
The resulting pellet is resuspended in the original volume of 0.32 M aqueous sucrose. The sample is then diluted 1:2 in 10 mM Na₂HPO₄/KH₂PO₄ buffer (pH = 7.4). A 100 µL sample of the buffered tissue suspension is incubated at 25°C for 60 minutes in the dark with 10 µL of test compound or vehicle for control and [³H] pirenzipine (0.5 nM, 0.04 µCi) q.s. 1 milliliter with the buffer solution. Atropine sulfate (2 µM) is added to half the samples being processed. Binding is terminated by vacuum filtration onto Whatman GF/B filters which are washed three times with the buffer solution (3 ml/wash, 4°C). […] Specific [³H] PZ binding is defined as total binding minus binding in the presence of 2 µM atropine sulfate.

M2 receptor = molecular target: T4, M2 receptor (Rattus norvegicus, UniProt P10980); test: M2 receptor binding ([3H] quinuclidinyl benzilate, cerebellum tissue); conditions: [3H] quinuclidinyl benzilate 0.23 nM, read-out: IC₅₀for M₂
T4 sequence (P10980 1-466): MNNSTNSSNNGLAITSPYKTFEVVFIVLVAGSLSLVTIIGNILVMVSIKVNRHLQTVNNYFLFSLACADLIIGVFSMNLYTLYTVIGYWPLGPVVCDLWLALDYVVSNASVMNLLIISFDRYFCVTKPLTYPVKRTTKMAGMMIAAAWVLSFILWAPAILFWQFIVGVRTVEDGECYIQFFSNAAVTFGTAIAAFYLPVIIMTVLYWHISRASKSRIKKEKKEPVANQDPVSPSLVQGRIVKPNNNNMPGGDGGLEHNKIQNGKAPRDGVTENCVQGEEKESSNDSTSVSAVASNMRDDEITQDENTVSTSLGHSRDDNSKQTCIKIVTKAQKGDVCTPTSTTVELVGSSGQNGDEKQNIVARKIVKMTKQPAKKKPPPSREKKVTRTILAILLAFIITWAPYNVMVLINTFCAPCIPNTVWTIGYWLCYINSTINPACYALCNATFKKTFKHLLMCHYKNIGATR

[2] = at 1 µM, rat brain cortex homogenate, 3H-spiroperidol

T2 sequence (P14842 whole entry): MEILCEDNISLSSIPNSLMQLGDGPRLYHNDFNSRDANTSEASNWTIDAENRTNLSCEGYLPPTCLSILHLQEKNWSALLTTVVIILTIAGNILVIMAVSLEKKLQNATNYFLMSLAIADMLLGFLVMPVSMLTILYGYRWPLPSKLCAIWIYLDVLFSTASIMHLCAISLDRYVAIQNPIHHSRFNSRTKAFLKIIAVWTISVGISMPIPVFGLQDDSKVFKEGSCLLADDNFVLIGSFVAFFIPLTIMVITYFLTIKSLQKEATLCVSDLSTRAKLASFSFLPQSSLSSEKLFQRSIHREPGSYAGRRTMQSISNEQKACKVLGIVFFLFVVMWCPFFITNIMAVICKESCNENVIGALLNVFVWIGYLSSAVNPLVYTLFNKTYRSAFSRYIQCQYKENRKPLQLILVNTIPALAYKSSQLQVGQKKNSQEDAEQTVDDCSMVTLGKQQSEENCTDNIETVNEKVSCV

inhibition at 1 µM [1] | Structure (SMILES) | also measured
98% | COc1ccccc1N1CCN(CCNC(=O)CC23CC4CC(CC(C)(C4)C2)C3)CC1 [Example 12, N-[2-[4-(2-Methoxyphenyl)-1-piperazinyl]ethyl]-3-methyltricyclo[3.3.1.1^3,7]decane-1-acetic Acid Carboxamide] | –
88% | O=C(NCCCN1CCN(c2ncccn2)CC1)C12CC3CC(CC1C3)C2 [Example 17, N-[3-[4-(2-Pyrimidyl)-1-piperazinyl]propyl]hexahydro-2,5-methanopentalene-3a(1H)-carboxamide] | Ki [1]: 67 nM
99% | COc1ccccc1N1CCN(CCCNC(=O)C23CC4CC(CC2C4)C3)CC1 [Example 18, N-[3-[4-(2-Methoxyphenyl)-1-piperazinyl]propyl]hexahydro-2,5-methanopentalene-3a(1H)-carboxamide] | –
97% | O=C(NCCN1CCN(c2ncccn2)CC1)C12CC3CC(CC1C3)C2 [Example 13, N-[2-[4-(2-Pyrimidyl)-1-piperazinyl]ethyl]hexahydro-2,5-methanopentalene-3a(1H)-carboxamide] | –

Continued, compound first:

Structure (SMILES) | inhibition at 1 µM [1] | also measured
COc1ccccc1N1CCN(CCCNC(=O)c2cc3ccccc3o2)CC1 [Example 6, N-[3-[4-(2-Methoxyphenyl)-1-piperazinyl]propyl]benzofurane-2 carboxamide] | 94% | –
COc1ccccc1N1CCN(CCCNC(=O)C23CC4CC(CC(C4)C2)C3)CC1 [Example 1, N-[3-[4-(2-Methoxyphenyl)-1-piperazinyl]propyl]tricyclo[3.3.1.1^3,7]decan-1-carboxamide] | 98% | Ki [1]: 1 nM; inhibition at 1 µM (5-HT₂; [2]): 92%
O=C(NCCN1CCN(c2ncccn2)CC1)c1cc2ccccc2o1 [Example 5, N-[2-[4-(2-Pyrimidyl)-1-piperazinyl]ethyl]benzofurane-2-carboxamide] | 83% | –
O=C(NCCCN1CCN(c2cccc(Cl)c2)CC1)C12CC3CC(CC(C3)C1)C2 [Example 8, N-[3-[4-(3-Chlorophenyl)-1-piperazinyl]propyl]tricyclo[3.3.1.1^3,7]decane-1-carboxamide] | 94% | –
O=C(NCCCN1CCN(c2ncccn2)CC1)C12CC3CC(CC(C3)C1)C2 [Example 10, N-[3-[4-(2-Pyrimidyl)-1-piperazinyl]propyl]tricyclo[3.3.1.1^3,7]decane-1-carboxamide] | 82% | –
O=C1CC2(CCCC2)CC(=O)N1CCCCN1CCN(c2ncccn2)CC1 [Buspirone, reference compound] | 94% | –
CC12CC3CC(C1)CC(CC(=O)NCCN1CCN(c4cccc(Cl)c4)CC1)(C3)C2 [Example 11, N-[2-[4-(3-Chlorophenyl)-1-piperazinyl]ethyl]-3-methyltricyclo[3.3.1.1^3,7]decane-1-acetic Acid Carboxamide] | 91% | –
O=C(NCCN1CCN(c2cccc(Cl)c2)CC1)C12CC3CC(CC(C3)C1)C2 [Example 4, N-[2-[4-(3-Chlorophenyl)-1-piperazinyl]ethyl]tricyclo[3.3.1.1^3,7]decane-1-carboxamide] | 100% | –
COc1ccccc1N1CCN(CCNC(=O)C23CC4CC(CC2C4)C3)CC1 [Example 14, N-[2-[4-(2-Methoxyphenyl)-1-piperazinyl]ethyl]hexahydro-2,5-methanopentalene-3a(1H)-carboxamide] | – | inhibition at 0.1 µM [1]: 100%
O=C(NCCN1CCN(c2cccc(Cl)c2)CC1)C12CC3CC(CC1C3)C2 [Example 15, N-[2-[4-(3-Chlorophenyl)-1-piperazinyl]ethyl]hexahydro-2,5-methanopentalene-3a(1H)-carboxamide] | – | inhibition at 0.1 µM [1]: 99%; IC50 (M1 muscarinic receptor; rat hippocampus, [3H] pirenzipine 0.5 nM, read-out: IC₅₀for M₁): 240 nM; M₂/M₁ Ratio (M1 muscarinic receptor; ratio of IC50 for M2 to IC50 for M1): 46; IC50 (M2 receptor): 11000 nM
COc1ccccc1N1CCN(CCNC(=O)C23CC4CC(CC(C4)C2)C3)CC1 [Example 3, N-[2-[4-(2-Methoxyphenyl)-1-piperazinyl]ethyl]tricyclo[3.3.1.1^3,7]decane-1-carboxamide] | 97% | –
O=C(NCCN1CCN(c2ncccn2)CC1)C12CC3CC(CC(C3)C1)C2 [Example 2, N-[2-[4-(2-Pyrimidyl)-1-piperazinyl]ethyl]tricyclo[3.3.1.1^3,7]decane-1-carboxamide] | 97% | Ki [1]: 1 nM; inhibition at 1 µM (5-HT₂; [2]): 91%
CC1(C)CC(=O)N(CCCCN2CCN(c3ncccn3)CC2)C(=O)C1 [Gepirone, 4,4-dimethyl-1-[4-[4-(2-pyrimidinyl)-1-piperazinyl]-butyl]-2,6-piperidinedione, reference compound] | – | inhibition at 1 µM (5-HT₂): 20%
COc1ccccc1N1CCN(CCCNC(=O)c2cc3ccccc3[nH]2)CC1 [Example 7, N-[3-[4-(2-Methoxyphenyl)-1-piperazinyl]propyl]-(1H)-indole-2 carboxamide] | 91% | –
O=C(NCCCN1CCN(c2cccc(Cl)c2)CC1)C12CC3CC(CC1C3)C2 [Example 19, N-[3-[4-(3-Chlorophenyl)-1-piperazinyl]propyl]hexahydro-2,5-methanopentalene-3a(1H)-carboxamide] | – | inhibition at 0.1 µM [1]: 75%; Ki [1]: 20 nM
CC12CC3CC(C1)CC(CC(=O)NCCN1CCN(c4ncccn4)CC1)(C3)C2 [Example 9, N-[2-[4-(2-Pyrimidyl)-1-piperazinyl]ethyl]-3-methyltricyclo[3.3.1.1^3,7]decane-1-acetic Acid Carboxamide] | 93% | –
